Experimental findings from patent US20240350440A1, “EXTRACTION OF ABSCISIC ACID FROM STRAWBERRIES” (KING FAISAL UNIVERSITY, priority 2023, published 2024) are described below.

What all share (type): in vivo
Assay [1] has as its system albino rat after inducing myocardial infarction disease. Description: Electrocardiogram assessment in adrenaline-induced myocardial infarction. The following applies: MI induced by high dose of adrenaline. The procedure: (§1) The extracted and purified ABA was tested on an albino rat after inducing myocardial infarction disease by using a high dose of adrenaline at Alexandria faculty of medicine and all tests of examination were performed (chemical, electrocardiograph Histological).

Assay [2] has the same test system. Description: Biological cardiac markers in adrenaline-induced myocardial infarction. The following applies: MI induced by high dose of adrenaline. The procedure: as §1
Assay [3] shares this test system. In words: Oxidative stress markers and antioxidant enzymes in adrenaline-induced myocardial infarction. The following applies: MI induced by high dose of adrenaline. The procedure: as §1
Assay [4] shares this test system. In words: Histopathological assessment of H&E-stained heart tissue. More on the design: key: grade 1 (normal histological the appearance of the myocardium); grade 2 (focal necrosis of myocardium); grade 3 (focal necrosis of myocardial fiber with neutrophil infiltration and interstitial edema); grade 4 (extensive necrosis of myocardial fiber with hemorrhage, interstitial edema, marked neutrophil infiltration and severe myofibrillary degeneration). The following applies: MI rat. Here is the method: as §1
With reference to the Figures, the histopathological assessment of H&E-stained (hematoxylin and eosin stained) heart tissue was scored according to severity of myocardial changes: grade 1 (normal histological the appearance of the myocardium), grade 2 (focal necrosis of myocardium), grade 3 (focal necrosis of myocardial fiber with neutrophil infiltration and interstitial edema), and grade 4 (extensive necrosis of myocardial fiber with hemorrhage, interstitial edema, marked neutrophil infiltration and severe myofibrillary degeneration).

Marks after values point to notes of the source that are not given here.

In the case of `CC1=CC(=O)CC(C)(C)C1(O)/C=C/C(C)=C\C(=O)O` (centres unmarked) [Extracted ABA, abscisic acid], in assay [1], the “COP (mean ml/min)” value is recorded as 18.57 ± 1.04^b ml/min, the “HR (mean b/min)” value is listed as 247.4 ± 9.69^cd b/min, the “RR (interval/sec)” value was 0.73 ± 0.034^b sec and the ST height is on record as 42.98 ± 4.05^b mm. In addition, the carotid flow mean in assay [1] is listed as 18.06 ± 1.15^b ml/min. In assay [2], the CK-MB is 1.14 ± 0.02^bc U/L, the LDH is listed as 482.67 ± 4.63^bc U/L and the Troponin is recorded as 1.71 ± 0.02^b ng/ml. Also, in assay [3], the Catalase was 97 ± 1.73^bc U/g protein, the GSH is recorded as 21.66 ± 0.39^a μmol/g protein, the MDA is on record as 5.68 ± 0.27^bcd μmol/g protein and the NO is on record as 47.78 ± 4.49^bc μM/g protein. The “histopathological score, severity of myocardial changes” value in assay [4] is recorded as “grade 3”.

Regarding `CC1=CC(=O)CC(C)(C)[C@@]1(O)/C=C/C(C)=C\C(=O)O` [Standard ABA, abscisic acid], in assay [1], the “COP (mean ml/min)” value is 17.52 ± 0.1^b ml/min, the “HR (mean b/min)” value is recorded as 255.77 ± 1.23^bc b/min, the “RR (interval/sec)” value is recorded as 0.7 ± 0.003^c sec and the ST height is on record as 39.33 ± 2.15^b mm. In addition, the carotid flow mean in assay [1] was 17.4 ± 0.16^b ml/min. In assay [2], the CK-MB is 1.22 ± 0.03^b U/L, the LDH is 587.33 ± 30.12^b U/L and the Troponin is recorded as 1.72 ± 0.05^b ng/ml. In addition, in assay [3], the Catalase was 112 ± 23.09^abc U/g protein, the GSH is 20.01 ± 2.27^a μmol/g protein, the MDA is on record as 6.13 ± 1.34^bc μmol/g protein and the NO is given as 48.61 ± 5.61^bc μM/g protein. The “histopathological score, severity of myocardial changes” value in assay [4] is reported as “grade 3”.
